US6998404B2, “Treatment or prevention of acute renal failure” (priority 2001, dated 2006)
Read-outs that look alike come from different tables or passages of the source.

What was measured:
[1] = radiocontrast nephropathy, impaired renal excretory, endocrine and tubular function, cited from earlier work
[2] = treatment of oliguric prerenal acute renal failure, need for dialysis; type: in vivo, human; conditions: patients with acute renal failure progressed to oliguria (less than 300 ml urine output per day)
Excerpt: Adenosine receptor antagonists, especially aminophyllline, are used to treat or prevent acute renal failure. Adenosine antagonists are suited for prerenal acute renal failure only.

[3] = human trials, radio-contrast renal injury, IV, administered before the toxic insult; cited from earlier work
[4] = rat, glycerol-induced ARF, IV, administered before the toxic insult; cited from earlier work
[5] = patients, aminophylline toxicity; cited from earlier work
[6] = cyclosporin-A-induced renal failure with renal vasoconstriction; cited from earlier work

Cn1c(=O)c2[nH]cnc2n(C)c1=O [Theophyllin E]
protective role in preventing RCN [1]: effective in preventing RCN impaired renal excretory, endocrine and tubular function

Cn1c(=O)c2[nH]cnc2n(C)c1=O [aminophylline]
patients in whom the need for dialysis is obviated [2]: over 50%
prevention of ARF [3]: dramatic in preventing ARF
prevention of ARF [4]: dramatic in preventing ARF
serum theophylline level at which nausea and vomiting usually occur [5]: around 20 micrograms/ml
protective role in preventing RCN ([1]; listed as Aminophylline): does not appear to add a protective role in preventing RCN

Cn1c(=O)c2[nH]cnc2n(C)c1=O [theophylline]
restoration of renal function [6]: restored renal function significantly
